Measured values reported in US4518587A, “Dipeptides of L-5-hydroxytryptophan, processes for their preparation and drugs in which they are present” (S.A. Panmedica, priority 1983, dated 1985).
Read-outs that look alike come from different tables or passages of the source. Square brackets hold non-standard residues; d marks the D form. Peptide text beside a SMILES is read from it. * marks the point of attachment. Trp(5-OH) = N[C@@H](Cc1c[nH]c2ccc(O)cc12)C(=O)O; OtBu = CC(C)(C)O*; tBu = CC(C)(C)*

Test system: brain levels of L-5-hydroxytryptophan (L-5-HTP), serotonin (5-HT) and 5-hydroxyindoleacetic acid (5-HIAA)
Experiment: Biochemical analysis of brain levels of L-5-HTP, 5-HT and 5-HIAA one hour after a single dose (technique of CURZON and GREEN)
Type: in vivo, rats
Details: for change in vivo at 10 mg/kg / change in vivo at 25 mg/kg / change in vivo at 50 mg/kg: Rattus norvegicus, 1 h; for change in vivo at 10 mg/kg: read-out: %, relative to the controls, of L-5-HTP at dose of 10 mg/kg
Description: Biochemical analysis of the brain levles of L-5-hydroxytryptophan (L-5-HTP), serotonin (5-HT) and its first metabolite, 5-hydroxyindoleacetic acid (5- HIAA), was carried out one hour after the administration of a single dose to adult rats by the technique of CURZON and GREEN. Three doses were studied, i.e. 10, 25 and 50 mg/kg, 10 animals being used per dose. Table I below indicates the percentage increases in 5-HTP, 5-HT and 5-HIAA relative to the levels found in the control animals: […]

[1] = brain level, adult rats, single dose 25 mg/kg, one hour after administration, percentage increase relative to control animals
[2] = brain level, adult rats, single dose 50 mg/kg, one hour after administration, percentage increase relative to control animals
[3] = brain level, adult rats, single dose 10 mg/kg, one hour after administration, percentage increase relative to control animals
[4] = brain level, adult rats, single dose 25 mg/kg, one hour after administration, percentage increase relative to control animals, read-out: %, relative to the controls, of L-5-HTP at dose of 25 mg/kg
[5] = brain level, adult rats, single dose 50 mg/kg, one hour after administration, percentage increase relative to control animals, read-out: %, relative to the controls, of 5-HT at dose of 50 mg/kg
[6] = read-out: %, relative to the controls, of 5-HT at dose of 50 mg/kg
[7] = read-out: %, relative to the controls, of L-5-HTP at dose of 25 mg/kg
[8] = read-out: %, relative to the controls, of L-5-HTP at dose of 50 mg/kg
[9] = brain level, adult rats, single dose 25 mg/kg, one hour after administration, percentage increase relative to control animals, read-out: %, relative to the controls, of 5-HIAA at dose of 25 mg/kg
[10] = brain level, adult rats, single dose 50 mg/kg, one hour after administration, percentage increase relative to control animals, read-out: %, relative to the controls, of 5-HIAA at dose of 50 mg/kg
[11] = brain level, adult rats, single dose 50 mg/kg, one hour after administration, percentage increase relative to control animals, read-out: %, relative to the controls, of L-5-HTP at dose of 50 mg/kg

Compound	%, relative to the controls, of 5-HT at dose of 25 mg/kg [1]	%, relative to the controls, of 5-HT at dose of 50 mg/kg [2]	change in vivo at 10 mg/kg [3]	change in vivo at 50 mg/kg [5]	%, relative to the controls, of 5-HT at dose of 10 mg/kg [3]	%, relative to the controls, of L-5-HTP at dose of 10 mg/kg [3]	%, relative to the controls, of 5-HIAA at dose of 25 mg/kg [1]	%, relative to the controls, of L-5-HTP at dose of 25 mg/kg [1]	%, relative to the controls, of 5-HIAA at dose of 50 mg/kg [2]	%, relative to the controls, of L-5-HTP at dose of 50 mg/kg [2]	%, relative to the controls, of 5-HIAA at dose of 10 mg/kg [3]	other results
COC(=O)[C@H](Cc1ccc(O)cc1)NC(=O)[C@H](Cc1c[nH]c2ccc(O)cc12)NC(C)=O [Example 6, Methyl ester of N-acetyl-5-hydroxy-L-tryptophyl-L-tyrosine] (Ac-[Trp(5-OH)]-Tyr-OMe)	5%	5%										
N[C@@H](Cc1c[nH]c2ccc(O)cc12)C(=O)N[C@@H](CCC(=O)O)C(=O)O [Example 4, 5-Hydroxy-L-tryptophyl-L-glutamic acid] (H-[Trp(5-OH)]-Glu-OH)	10%		200%	60%	5%							change in vivo at 25 mg/kg [4]: 550%
CC(C)(C)OC[C@H](NC(=O)[C@@H](N)Cc1c[nH]c2ccc(O)cc12)C(=O)OC(C)(C)C [Example 15, Tert.-butyl ester of L-5-hydroxytryptophyl-O-tert.-butyl-L-serine] (H-[Trp(5-OH)]-Ser(tBu)-OtBu)						200%	60%	400%	150%	900%		
NC(=O)[C@@H](N)Cc1c[nH]c2ccc(O)cc12.O [Example 21, 5-HYDROXY-L-TRYPT[…], HYDRATE]												change in vivo at 25 mg/kg (read-out: %, relative to the controls, of 5-HIAA at dose of 25 mg/kg): 50%; change in vivo at 50 mg/kg (read-out: %, relative to the controls, of 5-HIAA at dose of 50 mg/kg): 170%; change in vivo at 50 mg/kg [6]: 20%; change in vivo at 10 mg/kg: 125%; change in vivo at 25 mg/kg [7]: 250%; change in vivo at 50 mg/kg [8]: 700%
N[C@@H](Cc1c[nH]c2ccc(O)cc12)C(=O)N[C@@H](CO)C(=O)O [Example 16, L-5-HYDROXYTRYPTOPHYL-L-SERINE] (H-[Trp(5-OH)]-Ser-OH)			170%	15%							10%	change in vivo at 25 mg/kg [9]: 30%; change in vivo at 50 mg/kg [10]: 150%; change in vivo at 50 mg/kg [11]: 900%
COC(=O)[C@H](Cc1c[nH]cn1)NC(=O)[C@@H](N)Cc1c[nH]c2ccc(O)cc12 [Example 22, METHYL ESTER OF 5-HYDROXY-L-TRYPTOPHYL-L-HISTIDINE] (H-[Trp(5-OH)]-His-OMe)	15%	15%					140%	200%	300%	300%	40%	
5-Hydroxy-L-tryptophyl-γ-aminobutyric acid [Example 20]	5%	15%			5%	60%	100%	200%	150%	400%	40%	
COC(=O)[C@H](Cc1ccc(O)cc1)NC(=O)[C@@H](N)Cc1c[nH]c2ccc(O)cc12.Cl [Example 5, Methyl ester of 5-hydroxy-L-tryptophyl-L-tyrosine hydrochloride] (H-[Trp(5-OH)]-Tyr-OMe)	10%	40%			12%	200%	160%	450%	170%	1200%	55%	
N[C@@H](Cc1c[nH]c2ccc(O)cc12)C(=O)N[C@@H](Cc1c[nH]c2ccccc12)C(=O)O [Example 14, 5-Hydroxy-L-tryptophyl-L-tryptophan] (H-[Trp(5-OH)]-Trp-OH)	12%		50%	10%								change in vivo at 25 mg/kg [4]: 100%; change in vivo at 50 mg/kg [11]: 200%
NC(=O)[C@@H](N)Cc1c[nH]c2ccc(O)cc12.O [Example 21, 5-HYDROXY-L-TRYPT[…]]											30%	
5-HYDROXY-L-TRYPTOPHAN-L-VALINE [Example 9]	40%	45%			12%	300%	250%	900%	320%	1700%	70%	
N=C(N)NCCC[C@H](NC(=O)[C@@H](N)Cc1c[nH]c2ccc(O)cc12)C(=O)O [Example 18, 5-Hydroxy-L-tryptophyl-L-arginine] (H-[Trp(5-OH)]-Arg-OH)	30%		100%	30%	12%						10%	change in vivo at 25 mg/kg [9]: 15%; change in vivo at 25 mg/kg [4]: 300%; change in vivo at 50 mg/kg [10]: 15%; change in vivo at 50 mg/kg [11]: 500%
COC(=O)[C@H](Cc1c[nH]c2ccc(O)cc12)NC(=O)[C@H](Cc1c[nH]c2ccc(O)cc12)NC(C)=O [Example 7, METHYL ESTER OF N-ACETYL-5-HYDROXY-L-TRYPTOPHYL-5-HYDROXY-L-TRYPTOPHAN] (Ac-[Trp(5-OH)]-[Trp(5-OH)]-OMe)						10%	20%		20%	30%	10%	
N[C@@H](Cc1c[nH]c2ccc(O)cc12)C(=O)N1CCC[C@H]1C(=O)O [Example 11, 5-HYDROXY-L-TRYPTOPHYL-L-PROLINE] (H-[Trp(5-OH)]-Pro-OH)			200%	20%	10%							change in vivo at 25 mg/kg [9]: 150%; change in vivo at 25 mg/kg [4]: 700%; change in vivo at 50 mg/kg [10]: 300%
N[C@@H](Cc1c[nH]c2ccc(O)cc12)C(=O)N[C@@H](CC(=O)O)C(=O)O.O.O.O [Example 2, 5-Hydroxy-L-tryptophyl-L-aspartic acid trihydrate] (H-[Trp(5-OH)]-Asp-OH)	5%				5%							change in vivo at 50 mg/kg [6]: 10%; change in vivo at 10 mg/kg: 200%; change in vivo at 25 mg/kg [7]: 600%; change in vivo at 50 mg/kg [8]: 1000%
